Consider 58 compounds from the RepoRT retention time repository (doi:10.1021/acs.analchem.2c02893).

The series is described as follows: RP, Thermo Scientific Acclaim RSLC 120 C18, 100 × 2.1 mm, 2.2 µm, 30 °C, 0.2 mL/min, estimated dead time 1.1 min; A: 90% water + 10% methanol + 0.01% formic acid + 5 mM ammonium formate, pH 3.61; B: methanol + 0.01% formic acid + 5 mM ammonium formate, pH 3.61; gradient (min/%B) 0/1 1/1 2/39 13/99.9 15/99.9 15.1/1 20.1/1. Particulars: stereoisomer not certain.
Regarding `N#CN=C1SCCN1Cc1ccc(Cl)nc1` [Thiacloprid], the LC retention time is 5.62 min.

`CN1COCN(Cc2cnc(Cl)s2)C1=N[N+](=O)[O-]` [Thiamethoxam]: the LC retention time is 4.25 min.

`COC(=O)c1c(C(F)F)nc(C(F)(F)F)c(C2=NCCS2)c1CC(C)C` [Thiazopyr]: the LC retention time is 10.7 min.

Consider `O=C(Nc1ccccc1)Nc1cnns1` [Thidiazuron], for which the LC retention time was 7.17 min.

Consider `CCSc1ccc2c(c1)N(CCCN1CCN(C)CC1)c1ccccc1S2` [Thiethylperazine], for which the LC retention time was 10.4 min.

As to `COC(=O)c1sccc1S(=O)(=O)NC(=O)Nc1nc(C)nc(OC)n1` [Thifensulfuron-methyl], the LC retention time is 6.24 min.

With `CCN(CC)C(=O)SCc1ccc(Cl)cc1` [Thiobencarb], the LC retention time was 11.4 min.

As to `CN(C)C1CSSSC1` [Thiocyclam], the LC retention time is 3.16 min.

As for `CSC(C)=NOC(=O)N(C)SN(C)C(=O)ON=C(C)SC` [Thiodicarb], the LC retention time was 7.64 min.

As to `CNC(=O)ON=C(CSC)C(C)(C)C` [Thiofanox], the LC retention time was 7.8 min.

Consider `Nc1nc(=S)c2[nH]cnc2[nH]1` [Thioguanine], for which the LC retention time is 2.53 min.

In the case of `CCSCCSP(=S)(OC)OC` [Thiometon], the LC retention time is 10.2 min.

Take `CCOP(=S)(OCC)Oc1cnccn1` [Thionazin (Zinophos)]: the LC retention time is 8.35 min.

Consider `CCOC(=O)NC(=S)Nc1ccccc1NC(=S)NC(=O)OCC` [Thiophanate-ethyl], for which the LC retention time was 8.61 min.

`COC(=O)NC(=S)Nc1ccccc1NC(=S)NC(=O)OC` [Thiophanate-methyl]: the LC retention time was 6.93 min.

Take `CC(=O)OCCN1CCN(CCCN2c3ccccc3Sc3ccc(Cl)cc32)CC1` [Thiopropazate]: the LC retention time is 9.61 min.

As to `CN1CCN(CCCN2c3ccccc3Sc3ccc(S(=O)(=O)N(C)C)cc32)CC1` [Thioproperazine], the LC retention time is 8.15 min.

With `CSc1ccc2c(c1)N(CCC1CCCCN1C)c1ccccc1S2=O` (stereo not drawn) [Thioridazine-5-sulfoxide], the LC retention time was 6.64 min.

For the compound `CSc1ccc2c(c1)N(CCC1CCCCN1C)c1ccccc1S2` (stereo not drawn) [Thioridazine], the LC retention time is 9.34 min.

With `CN1CCN(CCC=C2c3ccccc3Sc3ccc(S(=O)(=O)N(C)C)cc32)CC1` [Thiothixene], the LC retention time is 8.38 min.

For `CN(C)C(=S)SSC(=S)N(C)C` [Thiram (Tetramethylthiuramdisulfide.TMTD)], the LC retention time is 6.8 min.

For `Cc1ccsc1C(=CCCN1CCCC(C(=O)O)C1)c1sccc1C` (stereo not drawn) [Tiagabine], the LC retention time is 8.43 min.

For the compound `C=CC1(C)CC(OC(=O)CSCCN(CC)CC)C2(C)C(C)CCC3(CCC(=O)C32)C(C)C1O` (stereo not drawn) [Tiamulin], the LC retention time is 7.71 min.

As to `CCN(CC)CCNC(=O)c1cc(S(C)(=O)=O)ccc1OC` [Tiapride], the LC retention time is 3.41 min.

For `CCCSc1nc(NC2CC2c2ccc(F)c(F)c2)c2nnn(C3CC(OCCO)C(O)C3O)c2n1` (stereo not drawn) [Ticagrelor], the LC retention time is 11.3 min.

For the compound `Clc1ccccc1CN1CCc2sccc2C1` [Ticlopidine], the LC retention time is 9.25 min.

Consider `C[N+]1(CCC(O)(c2ccccc2)c2cccs2)CCOCC1` (stereo not drawn) [Tiemonium], for which the LC retention time is 5.06 min.

In the case of `CCOC(=O)C1(c2ccccc2)CCC=CC1NC` (stereo not drawn) [Tilidine-Nor], the LC retention time was 5.28 min.

For the compound `CCOC(=O)C1(c2ccccc2)CCC=CC1N(C)C` (stereo not drawn) [Tilidine], the LC retention time was 5.1 min.

On to `CCC1OC(=O)CC(O)C(C)C(OC2OC(C)C(O)C(N(C)C)C2O)C(CCN2CC(C)CC(C)C2)CC(C)C(=O)C=CC(C)=CC1COC1OC(C)C(O)C(OC)C1OC` (stereo not drawn) [Tilmicosin], for which the LC retention time is 6.69 min.

Regarding `CC(C)(C)NCC(O)COc1nsnc1N1CCOCC1` (stereo not drawn) [Timolol], the LC retention time was 4.88 min.

On to `CCS(=O)(=O)CCn1c([N+](=O)[O-])cnc1C` [Tinidazole], for which the LC retention time is 3.86 min.

In the case of `CCC(C)N(C(=O)SCc1ccccc1)C(C)CC` (stereo not drawn) [Tiocarbazil], the LC retention time was 12.8 min.

With `CC(C)CCOc1ccc(NC(=S)Nc2ccc(OCCC(C)C)cc2)cc1` [Tiocarlide], the LC retention time is 13 min.

Regarding `Clc1ccc2nsnc2c1NC1=NCCN1` [Tizanidine], the LC retention time is 3.64 min.

As to `CCCSP(=S)(OCC)Oc1ccc(Cl)cc1Cl` (stereo not drawn) [Tokuthion (Prothiophos)], the LC retention time was 13.6 min.

As to `Cc1ccc(S(=O)(=O)NC(=O)NN2CCCCCC2)cc1` [Tolazamide], the LC retention time is 8.09 min.

For `c1ccc(CC2=NCCN2)cc1` [Tolazoline], the LC retention time was 3.28 min.

As to `CCCCNC(=O)NS(=O)(=O)c1ccc(C)cc1` [Tolbutamide], the LC retention time was 7.68 min.

`COP(=S)(OC)Oc1c(Cl)cc(C)cc1Cl` [Tolclofos-methyl]: the LC retention time is 11.4 min.

Consider `Cc1c(Cl)cccc1Nc1ccccc1C(=O)O` [Tolfenamic acid], for which the LC retention time is 11.9 min.

In the case of `CCc1nn(C)c(C(=O)NCc2ccc(Oc3ccc(C)cc3)cc2)c1Cl` [Tolfenpyrad], the LC retention time is 12.4 min.

For the compound `Cc1cccc(OCC(O)CNC(C)C)c1` (stereo not drawn) [Toliprolol], the LC retention time was 5.29 min.

In the case of `Cc1ccc(C(=O)c2ccc(CC(=O)O)n2C)cc1` [Tolmetin], the LC retention time was 7.89 min.

Consider `Cc1cccc(N(C)C(=S)Oc2ccc3ccccc3c2)c1` [Tolnaftate], for which the LC retention time was 12.2 min.

As for `Cc1ccc(C(CCN(C)C)c2ccccc2)cc1` (stereo not drawn) [Tolpropamine], the LC retention time was 7.47 min.

Turning to `CCN(CC)CC(=O)Nc1c(C)cccc1C(=O)OC` [Tolycaine], the LC retention time was 4.59 min.

In the case of `Cc1ccc(N(SC(F)(Cl)Cl)S(=O)(=O)N(C)C)cc1` [Tolyfluanid], the LC retention time is 10.8 min.

`CC1(C)OC2COC3(COS(N)(=O)=O)OC(C)(C)OC3C2O1` (stereo not drawn) [Topiramate]: the LC retention time was 6.08 min.

Take `Cc1cccc(Nc2ccncc2S(=O)(=O)NC(=O)NC(C)C)c1` [Torasemide]: the LC retention time is 6.67 min.

Turning to `CN(C)CCOc1ccc(C(=C(CCCl)c2ccccc2)c2ccccc2)cc1` [Toremifene], the LC retention time is 10.5 min.

Take `CC1(C)C(C(=O)OC(C#N)c2cccc(Oc3ccccc3)c2)C1C(Br)C(Br)(Br)Br` (stereo not drawn) [Tralomethrin]: the LC retention time is 13.6 min.

Consider `COc1cccc(C2(O)CCCCC2CN)c1` (stereo not drawn) [Tramadol-N-bisdesmethyl (dinor-tramadol)], for which the LC retention time is 5.19 min.

As for `COc1cccc(C2(O)CCCCC2C[N+](C)(C)[O-])c1` (stereo not drawn) [Tramadol-N-oxide], the LC retention time is 5.24 min.

Regarding `CNCC1CCCCC1(O)c1cccc(OC)c1` (stereo not drawn) [Tramadol-Nor (Tramadol-N-desmethyl)], the LC retention time is 5.3 min.

Regarding `CCOC(=O)C(CCc1ccccc1)NC(C)C(=O)N1C(C(=O)O)CC2CCCCC21` (stereo not drawn) [Trandolapril], the LC retention time is 9.55 min.

As to `NCC1CCC(C(=O)O)CC1` (stereo not drawn) [Tranexamic acid], the LC retention time is 1.79 min.

As for `NC1CC1c1ccccc1` (stereo not drawn) [Tranylcypromine], the LC retention time is 4.27 min.
